Patent US20230233690A1, “ANDROGEN RECEPTOR PROTEIN DEGRADERS” (THE REGENTS OF THE UNIVERSITY OF MICHIGAN, priority 2020, published 2023)
Values belong to the compound of their own block, whether it stands above or below them.

Key:
[1] = PK parameters in male ICR mice; format: in vivo
Protocol: (§1) The pharmacokinetics (PK) of representative Compounds of the Disclosure were evaluated in mice or rats to provide an assessment of their oral bioavaibility. All animal experiments were performed under the guidelines of the University of Michigan Committee for Use and Care of Animals and using an approved animal protocol.

[2] = PK parameters in male SD rats; format: in vivo; conditions: for AUC(0-t) / clearance / Vd / Cmax / half-life: rat, in vivo; for clearance: read-out: Cl-obs; for Vd: read-out: Vss
Protocol: as §1

AR protein [3] = assay: Western blotting of AR protein degradation in MDA-MB-453 cells; format: cell-based; design: key: A: >90% degradation (24 hr treatment); B: >50% degradation but <90% (24 hr treatment); C: >10% degradation but <50% (24 hr treatment); D: No significant degradation (24 hr treatment); conditions: 24 hr treatment
Protocol: The appropriate cell line, e.g., prostate cancer LNCaP, Vcap, or MDA-MB-453 cell line, was treated with Compounds of the Disclosure. The treated cells were lysed with RIPA buffer. The AR level in the cell lysates was examined by western blotting and a specific AR antibody (ab194196, Abcam, Cambridge, Mass. 02139) with concentration of 1:20,000. GAPDH was used as a loading control.
(§2) Bands were quantified with ImageJ software. The relative numbers of each band obtained from normalization with its corresponding GAPDH level were compared with Prism 8 software. The DC50 values were produced from Prism 8, and the DC90 values were calculated with an equation=Bottom+(Top−Bottom)/(1+10^((Log EC50−X)*HillSlope) based on DC50 and Hillslope values.
The amount of AR protein degradation in LNCaP, VCap, and MDA-MB-453 cells caused representative Compounds of the Disclosure at the concentrations indicated is presented in Table 4 and Table 5.

AR protein [4] = target: T1, AR protein (Homo sapiens, UniProt P10275); assay: Western blotting of AR protein degradation in VCaP cells; format: cell-based
T1 construct: endogenous in cells; host or cells: VCaP
T1 sequence (P10275 1-920): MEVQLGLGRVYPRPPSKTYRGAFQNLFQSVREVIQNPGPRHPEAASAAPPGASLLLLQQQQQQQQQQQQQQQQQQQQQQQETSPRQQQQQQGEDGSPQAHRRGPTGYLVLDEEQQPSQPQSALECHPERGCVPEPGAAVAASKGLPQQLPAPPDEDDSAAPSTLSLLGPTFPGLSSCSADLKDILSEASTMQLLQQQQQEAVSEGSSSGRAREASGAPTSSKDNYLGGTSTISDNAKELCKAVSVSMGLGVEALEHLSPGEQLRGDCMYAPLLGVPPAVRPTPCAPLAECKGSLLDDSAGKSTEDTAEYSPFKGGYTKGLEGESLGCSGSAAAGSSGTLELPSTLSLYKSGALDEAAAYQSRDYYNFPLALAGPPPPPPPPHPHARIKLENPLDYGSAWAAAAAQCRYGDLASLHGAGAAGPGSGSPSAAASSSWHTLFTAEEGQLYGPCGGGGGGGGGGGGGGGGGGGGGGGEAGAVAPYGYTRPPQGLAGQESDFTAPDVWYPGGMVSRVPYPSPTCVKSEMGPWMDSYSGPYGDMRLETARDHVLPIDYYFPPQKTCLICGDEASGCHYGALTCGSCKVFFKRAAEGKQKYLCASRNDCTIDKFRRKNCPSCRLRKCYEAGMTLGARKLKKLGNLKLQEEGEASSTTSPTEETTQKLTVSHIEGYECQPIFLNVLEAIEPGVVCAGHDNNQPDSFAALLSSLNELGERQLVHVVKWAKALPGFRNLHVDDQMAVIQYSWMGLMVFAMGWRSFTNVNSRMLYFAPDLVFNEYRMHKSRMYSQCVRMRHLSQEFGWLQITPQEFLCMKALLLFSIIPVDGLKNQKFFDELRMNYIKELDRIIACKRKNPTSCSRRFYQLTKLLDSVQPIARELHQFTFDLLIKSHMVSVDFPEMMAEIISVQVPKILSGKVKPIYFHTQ
Protocol: The treated cells were lysed with RIPA buffer. […] GAPDH was used as a loading control.
as §2

[5] = PK parameters in male mice (Table 9); format: in vivo; conditions: for F: PO 3 mg/kg vs IV 1 mg/kg
Protocol: as §1

Compound: CC1(C)[C@H](NC(=O)c2ccc(N3CCN(C4CCN(c5ccc6c(c5)C(=O)N(C5CCC(=O)NC5=O)C6=O)CC4)CC3)cc2)C(C)(C)[C@H]1Oc1ccc(C#N)c(Cl)c1 (some centres unmarked) [Cpd. No. 114, N-((1r,3r)-3-(3-chloro-4-cyanophenoxy)-2,2,4,4-tetramethylcyclobutyl)-4-(4-(1-(2-(2,6-dioxopiperidin-3-yl)-1,3-dioxoisoindolin-5-yl)piperidin-4-yl)piperazin-1-yl)benzamide]
AUC(0-t) ([1]; IV 2 mg/kg): 15758.8 ng·h/mL
Cl-obs ([1]; IV 2 mg/kg): 1.7 mL/min/kg
Vss ([1]; IV 2 mg/kg): 1.5 L/kg
AUC(0-t) ([1]; PO 5 mg/kg): 14587.7 ng·h/mL
Cmax ([1]; PO 5 mg/kg): 980.1 ng/mL
F ([1]; PO 5 mg/kg): 37.0%
T1/2 ([1]; PO 5 mg/kg): 11.2 h
F ([2]; PO 5 mg/kg): 11.4%
AUC(0-t) ([2]; IV 2 mg/kg): 1190 ng·h/mL
clearance ([2]; IV 2 mg/kg): 7.7 mL/min/kg
Vd ([2]; IV 2 mg/kg): 2.5 L/kg
AUC(0-t) ([2]; PO 5 mg/kg): 4160 ng·h/mL
Cmax ([2]; PO 5 mg/kg): 100 ng/mL
half-life ([2]; PO 5 mg/kg): 534 min

Compound: N#Cc1ccc(OC2CCC(Oc3ccc(C#CC4CCN(CC5CCN(c6ccc7c(c6)C(=O)N(C6CCC(=O)NC6=O)C7=O)CC5)CC4)cc3)CC2)cc1Cl (centres unmarked) [compound 51]
AR protein degradation MDA-MB-453 10 nM (AR protein [3]): D
AR protein degradation MDA-MB-453 100 nM (AR protein [3]): D

Compound: N#Cc1ccc(O[C@H]2CC[C@H](Oc3ccc(C4CCN(CC5CCN(c6ccc7c(c6)C(=O)N(C6CCC(=O)NC6=O)C7=O)CC5)CC4)cc3)CC2)cc1Cl (some centres unmarked) [compound 52]
AR protein degradation MDA-MB-453 10 nM (AR protein [3]): D
AR protein degradation MDA-MB-453 100 nM (AR protein [3]): D

Compound: CC1(C)[C@H](NC(=O)c2ccc(N3CCC(CN4CCN(c5ccc6c(c5)C(=O)N(C5CCC(=O)NC5=O)C6=O)CC4)CC3)cc2)C(C)(C)[C@H]1Oc1ccc(C#N)c(Cl)c1 (some centres unmarked) [compound 190, N-((1r,3r)-3-(3-chloro-4-cyanophenoxy)-2,2,4,4-tetramethylcyclobutyl)-4-(4-((4-(2-(2,6-dioxopiperidin-3-yl)-1,3-dioxoisoindolin-5-yl)piperazin-1-yl)methyl)piperidin-1-yl)benzamide]
AUC(0-t) ([1]; IV 1 mg/kg): 2565 ng·h/mL
Cl-obs ([1]; IV 1 mg/kg): 3.2 mL/min/kg
Vss ([1]; IV 1 mg/kg): 6.8 L/kg
AUC(0-t) ([1]; PO 3 mg/kg): 2550.1 ng·h/mL
Cmax ([1]; PO 3 mg/kg): 134.4 ng/mL
F ([1]; PO 3 mg/kg): 33.1%
T1/2 ([1]; PO 3 mg/kg): 67.8 h

Compound: CN(c1ccc(C#N)c(Cl)c1)[C@H]1CC[C@H](NC(=O)c2ccc(N3CC(CN4CCN(c5ccc6c(c5)C(=O)N(C5CCC(=O)NC5=O)C6=O)CC4)C3)cc2)CC1 (some centres unmarked) [compound 239, N-((1r,4r)-4-((3-chloro-4-cyanophenyl)(methyl)amino)cyclohexyl)-4-(3-((4-(2-(2,6-dioxopiperidin-3-yl)-1,3-dioxoisoindolin-5-yl)piperazin-1-yl)methyl)azetidin-1-yl)benzamide]
% AR protein degradation in VCaP Cells (AR protein [4]; 0.001 μM): 73%
% AR protein degradation in VCaP Cells (AR protein [4]; 0.01 μM): 91%
% AR protein degradation in VCaP Cells (AR protein [4]; 0.1 μM): 95%
% AR protein degradation in VCaP Cells (AR protein [4]; 1 μM): 94%
AUC(0-t) ([5]; IV 1 mg/kg): 1118 ng·h/mL
Cl ([5]; IV 1 mg/kg): 0.79 L/h/kg
T1/2 ([5]; IV 1 mg/kg): 8.8 h
Vss ([5]; IV 1 mg/kg): 8.25 L/kg
AUC(0-t) ([5]; PO 3 mg/kg): 1134 ng·h/mL
Cmax ([5]; PO 3 mg/kg): 92.2 ng/mL
T1/2 ([5]; PO 3 mg/kg): 8.1 h
Tmax ([5]; PO 3 mg/kg): 4.0 h
F [5]: 34%

Compound: CN(c1ccc(C#N)c(Cl)c1)[C@H]1CC[C@H](NC(=O)c2ccc(N3CC(N4CCN(c5ccc6c(c5)C(=O)N(C5CCC(=O)NC5=O)C6=O)CC4)C3)cc2)CC1 (some centres unmarked) [compound 240, N-((1r,4r)-4-((3-chloro-4-cyanophenyl)(methyl)amino)cyclohexyl)-4-(3-(4-(2-(2,6-dioxopiperidin-3-yl)-1,3-dioxoisoindolin-5-yl)piperazin-1-yl)azetidin-1-yl)benzamide]
% AR protein degradation in VCaP Cells (AR protein [4]; 0.001 μM): 82%
% AR protein degradation in VCaP Cells (AR protein [4]; 0.01 μM): 87%
% AR protein degradation in VCaP Cells (AR protein [4]; 0.1 μM): 88%
% AR protein degradation in VCaP Cells (AR protein [4]; 1 μM): 75%
clearance ([5]; ICR, mouse, in vivo, IV 1 mg/kg): 3.5 mL/min/kg
AUC(0-t) ([5]; IV 1 mg/kg): 4234 ng·h/mL
T1/2 ([5]; IV 1 mg/kg): 7.5 h
Vss ([5]; IV 1 mg/kg): 2.1 L/kg
AUC(0-t) ([5]; PO 3 mg/kg): 8637 ng·h/mL
Cmax ([5]; PO 3 mg/kg): 484 ng/mL
T1/2 ([5]; PO 3 mg/kg): 26.8 h
Tmax ([5]; PO 3 mg/kg): 4.7 h
F [5]: 67%

The next lines start with the values.

AUC(0-t) ([1]; IV 2 mg/kg): 13298.5 ng·h/mL
Cl-obs ([1]; IV 2 mg/kg): 1.2 mL/min/kg
Vss ([1]; IV 2 mg/kg): 2.7 L/kg
AUC(0-t) ([1]; PO 5 mg/kg): 22360.5 ng·h/mL
Cmax ([1]; PO 5 mg/kg): 1304.3 ng/mL
F ([1]; PO 5 mg/kg): 67.3%
T1/2 ([1]; PO 5 mg/kg): 18.8 h
Compound: CC1(C)[C@H](NC(=O)c2ccc(N3CCN(CC4CCN(c5ccc6c(c5)C(=O)N(C5CCC(=O)NC5=O)C6=O)CC4)CC3)cc2)C(C)(C)[C@H]1Oc1ccc(C#N)c(Cl)c1 (some centres unmarked) [Cpd. No. 46, N-((1r,3r)-3-(3-chloro-4-cyanophenoxy)-2,2,4,4-tetramethylcyclobutyl)-4-(4-((1-(2-(2,6-dioxopiperidin-3-yl)-1,3-dioxoisoindolin-5-yl)piperidin-4-yl)methyl)piperazin-1-yl)benzamide]

AUC(0-t) ([1]; IV 2 mg/kg): 11034.8 ng·h/mL
Cl-obs ([1]; IV 2 mg/kg): 1.9 mL/min/kg
Vss ([1]; IV 2 mg/kg): 2.7 L/kg
AUC(0-t) ([1]; PO 5 mg/kg): 20599.8 ng·h/mL
Cmax ([1]; PO 5 mg/kg): 1389.4 ng/mL
F ([1]; PO 5 mg/kg): 74.7%
T1/2 ([1]; PO 5 mg/kg): 12.0 h
Compound: CC1(C)[C@H](NC(=O)c2ccc(N3CCN(CC4CN(c5ccc6c(c5)C(=O)N(C5CCC(=O)NC5=O)C6=O)C4)CC3)cc2)C(C)(C)[C@H]1Oc1ccc(C#N)c(Cl)c1 (some centres unmarked) [Cpd. No. 112, N-((1r,3r)-3-(3-chloro-4-cyanophenoxy)-2,2,4,4-tetramethylcyclobutyl)-4-(4-((1-(2-(2,6-dioxopiperidin-3-yl)-1,3-dioxoisoindolin-5-yl)azetidin-3-yl)methyl)piperazin-1-yl)benzamide]

F ([1]; PO 5 mg/kg): 62.2%
AUC(0-t) ([1]; mouse, in vivo, IV 2 mg/kg, read-out: AUC0-t): 14600 ng·h/mL
clearance ([1]; mouse, in vivo, IV 2 mg/kg, read-out: Cl-obs): 1.7 mL/min/kg
Vd ([1]; mouse, in vivo, IV 2 mg/kg, read-out: Vss): 1.7 L/kg
half-life ([1]; mouse, in vivo, PO 5 mg/kg): 618 min
AUC(0-t) ([1]; mouse, in vivo, PO 5 mg/kg, read-out: AUC0-t): 22700 ng·h/mL
Cmax ([1]; mouse, in vivo, PO 5 mg/kg, read-out: Cmax): 1820 ng/mL
F ([2]; PO 5 mg/kg): 25.0%
AUC(0-t) ([2]; IV 2 mg/kg): 9140 ng·h/mL
clearance ([2]; IV 2 mg/kg): 3.1 mL/min/kg
Vd ([2]; IV 2 mg/kg): 2 L/kg
AUC(0-t) ([2]; PO 5 mg/kg): 5720 ng·h/mL
Cmax ([2]; PO 5 mg/kg): 414 ng/mL
half-life ([2]; PO 5 mg/kg): 624 min
Compound: CC1(C)[C@H](NC(=O)c2ccc(N3CCN(C4CN(c5ccc6c(c5)C(=O)N(C5CCC(=O)NC5=O)C6=O)C4)CC3)cc2)C(C)(C)[C@H]1Oc1ccc(C#N)c(Cl)c1 (some centres unmarked) [Cpd. No. 113, N-((1r,3r)-3-(3-chloro-4-cyanophenoxy)-2,2,4,4-tetramethylcyclobutyl)-4-(4-(1-(2-(2,6-dioxopiperidin-3-yl)-1,3-dioxoisoindolin-5-yl)azetidin-3-yl)piperazin-1-yl)benzamide]

AUC(0-t) ([1]; IV 1 mg/kg): 4333.7 ng·h/mL
Cl-obs ([1]; IV 1 mg/kg): 2.2 mL/min/kg
Vss ([1]; IV 1 mg/kg): 3.8 L/kg
AUC(0-t) ([1]; PO 3 mg/kg): 3127 ng·h/mL
Cmax ([1]; PO 3 mg/kg): 207 ng/mL
F ([1]; PO 3 mg/kg): 24%
T1/2 ([1]; PO 3 mg/kg): 12.4 h
Compound: CC1(C)[C@H](NC(=O)c2ccc(N3CCC(N4CCN(c5ccc6c(c5)C(=O)N(C5CCC(=O)NC5=O)C6=O)CC4)CC3)cc2)C(C)(C)[C@H]1Oc1ccc(C#N)c(Cl)c1 (some centres unmarked) [compound 189, N-((1r,3r)-3-(3-chloro-4-cyanophenoxy)-2,2,4,4-tetramethylcyclobutyl)-4-(4-(4-(2-(2,6-dioxopiperidin-3-yl)-1,3-dioxoisoindolin-5-yl)piperazin-1-yl)piperidin-1-yl)benzamide]
